Test results reported in ChEMBL document CHEMBL1201862, “PubChem BioAssay data set” (2004).
Calls of active or inactive are those of the source.

Columns and labels:
[1] = target: Nonstructural protein 1 (Influenza A virus, UniProt Q194T2); assay type: functional, Influenza A virus (A/California/07/2009(H1N1))
[2] = HEp-2 cell cytotoxicity, dose response, cytotoxicity control for RSV inhibitor project, HTS (AID 2410); assay type: functional; details: human respiratory syncytial virus
[3] = growth suppression of beta-catenin-knockout colon cells, dose response, cell-based, HCT116, human colon tumor (AID 1045); assay type: functional;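 note: HCT116 colon tumor cells with beta catenin knocked out; cells exposed to compound for 60 hours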
[4] = target: Induced myeloid leukemia cell differentiation protein Mcl-1 (Homo sapiens, UniProt Q07820); assay type: functional
Induced myeloid leukemia cell differentiation protein Mcl-1, sequence (Q07820 whole entry): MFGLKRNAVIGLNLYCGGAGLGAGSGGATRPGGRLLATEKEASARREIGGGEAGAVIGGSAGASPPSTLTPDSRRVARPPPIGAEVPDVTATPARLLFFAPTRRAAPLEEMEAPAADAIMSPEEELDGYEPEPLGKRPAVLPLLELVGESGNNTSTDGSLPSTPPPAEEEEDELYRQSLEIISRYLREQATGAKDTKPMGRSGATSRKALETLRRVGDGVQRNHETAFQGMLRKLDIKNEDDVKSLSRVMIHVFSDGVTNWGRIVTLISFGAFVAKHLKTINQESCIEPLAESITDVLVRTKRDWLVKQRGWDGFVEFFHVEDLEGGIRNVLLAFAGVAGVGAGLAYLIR

[5] = growth suppression of PTEN-null colon cells, dose response, cell-based, HCT116 PTEN knockout (AID 1047); assay type: functional;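 note: HCT116 colon tumor cells with PTEN knocked out; cells exposed to compound for 60 hours before readout; potency for loss of cell viability measured by luminescence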
[6] = target: T1, Heat shock factor protein 1 (Mus musculus, UniProt P38532); assay: HSF1 potentiators in luciferase reporter cells, confirmation, cell-based, NIH3T3, luminescence, dose retest (AID 435004); assay type: functional;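 note: stress induced by proteasome inhibitor MG132 added 30 min after compound; luciferase reporter driven by HSF1 response element in NIH3T3 cells; actives raise luminescence as potentiators of the MG132 stress response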
T1 sequence (P38532 whole entry): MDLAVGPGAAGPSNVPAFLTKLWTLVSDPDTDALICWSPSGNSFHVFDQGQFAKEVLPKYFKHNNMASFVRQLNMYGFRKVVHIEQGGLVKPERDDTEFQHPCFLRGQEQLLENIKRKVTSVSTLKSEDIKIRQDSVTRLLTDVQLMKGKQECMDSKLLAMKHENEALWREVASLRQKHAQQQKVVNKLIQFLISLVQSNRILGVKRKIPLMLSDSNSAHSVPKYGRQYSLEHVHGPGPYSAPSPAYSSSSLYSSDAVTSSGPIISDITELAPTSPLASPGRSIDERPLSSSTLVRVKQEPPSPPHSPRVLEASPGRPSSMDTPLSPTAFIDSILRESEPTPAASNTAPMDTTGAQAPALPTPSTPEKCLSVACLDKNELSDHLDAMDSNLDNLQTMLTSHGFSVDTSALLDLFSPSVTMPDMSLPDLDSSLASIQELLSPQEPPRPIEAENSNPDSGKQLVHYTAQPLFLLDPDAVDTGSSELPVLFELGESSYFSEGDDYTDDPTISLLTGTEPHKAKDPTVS

[7] = target: Luciferin 4-monooxygenase (Photinus pyralis, UniProt P08659); assay: firefly luciferase enzyme inhibitors, dose response, biochemical, luminescence (AID 1891)
Luciferin 4-monooxygenase, sequence (P08659 whole entry): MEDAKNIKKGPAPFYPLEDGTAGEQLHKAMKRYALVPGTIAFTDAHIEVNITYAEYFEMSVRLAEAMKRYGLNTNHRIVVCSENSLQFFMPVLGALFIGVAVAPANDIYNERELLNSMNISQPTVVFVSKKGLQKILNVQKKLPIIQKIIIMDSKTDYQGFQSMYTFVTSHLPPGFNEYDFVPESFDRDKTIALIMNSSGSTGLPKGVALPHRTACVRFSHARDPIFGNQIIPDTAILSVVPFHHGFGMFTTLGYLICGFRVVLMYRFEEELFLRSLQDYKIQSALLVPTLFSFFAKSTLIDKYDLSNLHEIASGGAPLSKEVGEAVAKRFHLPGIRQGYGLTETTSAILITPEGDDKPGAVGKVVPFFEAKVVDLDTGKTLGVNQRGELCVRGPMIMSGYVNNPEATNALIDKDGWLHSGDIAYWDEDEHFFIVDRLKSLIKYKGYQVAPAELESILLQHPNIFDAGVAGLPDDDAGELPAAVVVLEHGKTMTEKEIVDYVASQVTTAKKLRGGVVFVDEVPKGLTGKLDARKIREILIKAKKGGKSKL

[8] = Luminescence Cell-Based Dose Confirmation HTS to Identify Inhibitors of Platelet Dense Granule Release. [Related pubchem assays: 1663 (Primary HTS), 1678 (Summary of Project)]; assay type: functional
[9] = tested on: H9c2; assay: cells; assay type: functional, cell-based; details: Rattus norvegicus, H9c2, Myocardium;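 note: confirmatory concentration-response retest of ultra-high-throughput screening hits for modulation of myocardial damage; cell death induced by hydrogen peroxide oxidative stress; compound pretreatment for 60 min then peroxide exposure for 2 h; potency is for protecting the cells against peroxide damage rather than for killing them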
[10] = target: T2, Ubiquitin-conjugating enzyme E2 N (Homo sapiens, UniProt P61088); assay type: functional;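 note: Dose-response confirmation in a TR-FRET assay detecting UBC13-driven polyubiquitin chain formation, inhibition measured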
T2 sequence (P61088 whole entry): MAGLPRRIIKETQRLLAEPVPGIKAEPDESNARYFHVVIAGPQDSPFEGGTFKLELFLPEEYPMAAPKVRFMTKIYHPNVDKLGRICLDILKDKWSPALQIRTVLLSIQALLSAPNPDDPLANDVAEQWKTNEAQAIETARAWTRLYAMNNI

[11] = microbe, parasite or virus in culture; assay type: functional; details: Mycobacterium tuberculosis
[12] = target: Genome polyprotein (dengue virus type 2, UniProt P29990); assay: Dengue-2 NS5 methyltransferase inhibitors, primary screen, biochemical, confirmation dose response (AID 588689); assay type: functional
Genome polyprotein, sequence (P29990 2492-3391 limits assumed): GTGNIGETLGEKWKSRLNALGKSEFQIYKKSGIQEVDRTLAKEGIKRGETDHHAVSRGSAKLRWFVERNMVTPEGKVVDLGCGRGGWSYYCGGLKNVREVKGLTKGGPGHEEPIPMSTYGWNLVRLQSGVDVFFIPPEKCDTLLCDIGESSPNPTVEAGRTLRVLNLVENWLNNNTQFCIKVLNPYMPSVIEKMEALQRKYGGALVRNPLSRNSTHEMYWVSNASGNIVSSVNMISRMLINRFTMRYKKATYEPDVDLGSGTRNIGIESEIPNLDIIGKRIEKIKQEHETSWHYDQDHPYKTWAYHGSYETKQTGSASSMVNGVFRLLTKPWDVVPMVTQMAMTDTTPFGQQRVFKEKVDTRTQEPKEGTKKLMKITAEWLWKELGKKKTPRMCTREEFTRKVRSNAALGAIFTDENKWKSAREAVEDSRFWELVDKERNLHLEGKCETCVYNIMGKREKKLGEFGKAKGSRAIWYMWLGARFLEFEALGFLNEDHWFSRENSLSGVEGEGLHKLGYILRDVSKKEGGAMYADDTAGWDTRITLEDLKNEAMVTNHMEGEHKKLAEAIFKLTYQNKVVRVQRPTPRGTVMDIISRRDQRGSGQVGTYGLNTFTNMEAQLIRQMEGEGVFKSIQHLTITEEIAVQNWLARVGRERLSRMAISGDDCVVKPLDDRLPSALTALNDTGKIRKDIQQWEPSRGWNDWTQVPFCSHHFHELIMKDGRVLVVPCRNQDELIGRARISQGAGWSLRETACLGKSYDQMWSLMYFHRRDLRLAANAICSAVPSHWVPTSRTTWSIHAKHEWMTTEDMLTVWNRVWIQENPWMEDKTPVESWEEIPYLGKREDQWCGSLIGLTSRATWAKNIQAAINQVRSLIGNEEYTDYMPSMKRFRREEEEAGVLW

[13] = target: T3, Small ubiquitin-related modifier 1 (Homo sapiens, UniProt P63165); assay: inhibitors of SUMO1 peptide binding, dose response, biochemical, fluorescence polarization, uHTS hits (AID 624382); assay type: functional; details: read-out: IC50_Mean
T3 sequence (P63165 whole entry): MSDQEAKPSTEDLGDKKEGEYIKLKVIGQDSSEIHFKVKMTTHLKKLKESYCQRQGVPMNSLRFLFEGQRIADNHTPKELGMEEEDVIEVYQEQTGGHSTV

[14] = target: T3, Small ubiquitin-related modifier 1; assay: inhibitors of SUMO1 partner interactions, dose response, biochemical, FRET (AID 624383); assay type: functional; details: read-out: IC50_Mean
[15] = inhibitors of intracellular T. cruzi replication, confirmation, NIH3T3 host cells, beta-gal luminescence (AID 2044); assay type: functional, cell-based;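 note: intracellular parasites grown in NIH/3T3 mouse fibroblasts as host cells; luminescent beta-galactosidase reporter signal from transgenic T. cruzi replicating inside host cells; inhibitors lower the luminescence signal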
[16] = cytotoxicity toward NIH3T3 fibroblasts, dose response, counter-screen, cell-based, ATP luminescence, mouse fibroblasts (AID 2010); assay type: functional;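 note: cells exposed to compound for about 90 hours before reading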
[17] = target: T4, Aminopeptidase N (Plasmodium falciparum FcB1/Columbia, UniProt O96935); assay: P. falciparum M1AAP inhibitors, biochemical, fluorogenic H-Leu-NHMec substrate, 1536-well (AID 1445); design: species or system Plasmodium falciparum 3D7, 3D7
T4 sequence (O96935 whole entry): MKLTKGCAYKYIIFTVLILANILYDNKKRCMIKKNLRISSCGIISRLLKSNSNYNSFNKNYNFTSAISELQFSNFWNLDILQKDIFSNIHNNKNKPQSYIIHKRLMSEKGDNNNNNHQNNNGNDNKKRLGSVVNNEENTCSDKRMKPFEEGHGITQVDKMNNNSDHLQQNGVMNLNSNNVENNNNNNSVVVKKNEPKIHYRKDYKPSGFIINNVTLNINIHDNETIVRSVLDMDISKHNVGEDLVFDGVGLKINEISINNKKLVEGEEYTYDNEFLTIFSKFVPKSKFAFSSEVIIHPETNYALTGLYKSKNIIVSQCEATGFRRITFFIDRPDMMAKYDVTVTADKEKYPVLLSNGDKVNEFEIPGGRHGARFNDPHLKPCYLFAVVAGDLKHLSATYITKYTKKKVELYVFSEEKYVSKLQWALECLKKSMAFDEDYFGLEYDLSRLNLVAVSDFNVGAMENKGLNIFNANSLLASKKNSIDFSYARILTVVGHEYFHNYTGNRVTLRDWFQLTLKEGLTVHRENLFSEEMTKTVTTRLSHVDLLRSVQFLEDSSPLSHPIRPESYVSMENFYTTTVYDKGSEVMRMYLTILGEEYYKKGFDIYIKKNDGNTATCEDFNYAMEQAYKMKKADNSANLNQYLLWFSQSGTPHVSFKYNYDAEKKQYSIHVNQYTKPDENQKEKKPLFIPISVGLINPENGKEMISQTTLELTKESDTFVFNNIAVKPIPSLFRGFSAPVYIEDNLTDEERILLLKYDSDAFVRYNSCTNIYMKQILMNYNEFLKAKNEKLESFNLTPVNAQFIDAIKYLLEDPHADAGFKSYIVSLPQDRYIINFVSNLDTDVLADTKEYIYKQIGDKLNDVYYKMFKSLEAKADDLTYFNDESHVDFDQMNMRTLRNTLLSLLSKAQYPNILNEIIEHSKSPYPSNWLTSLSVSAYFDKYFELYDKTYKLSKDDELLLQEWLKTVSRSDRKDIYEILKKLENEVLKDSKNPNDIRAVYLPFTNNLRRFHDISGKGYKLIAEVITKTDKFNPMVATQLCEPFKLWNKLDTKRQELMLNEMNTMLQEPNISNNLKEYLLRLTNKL

[18] = target: Heat shock protein HSP 90-alpha (Homo sapiens, UniProt P07900); assay type: functional, organism-based

Nonstructural protein 1, sequence (Q194T2 whole entry): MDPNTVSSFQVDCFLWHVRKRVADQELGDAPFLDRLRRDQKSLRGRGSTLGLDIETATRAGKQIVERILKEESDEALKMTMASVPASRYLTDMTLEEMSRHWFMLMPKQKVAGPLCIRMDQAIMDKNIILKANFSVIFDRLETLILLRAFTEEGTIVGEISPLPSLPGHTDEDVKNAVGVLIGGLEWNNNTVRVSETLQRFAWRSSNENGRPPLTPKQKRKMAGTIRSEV

## CN1C(=S)N(c2cccnc2)C(=O)/C1=C\c1ccc(N(C)C)cc1
[1]
  IC50: > 100 µM (active)

## COC(=O)C(NC(=O)c1ccccc1C)(Nc1ncc(S(=O)(=O)c2ccc([N+](=O)[O-])cc2)s1)C(F)(F)F (stereo unspecified)
[2]
  CC50: 12.4 µM (active)

## O=C(Nc1nccs1)c1cccc(N2C(=O)c3cccc4c([N+](=O)[O-])ccc(c34)C2=O)c1
[3]
  EC50: 2.23 µM (active)
[4]
  IC50: 1.45 µM (not active)
[5]
  EC50: 3.77 µM (active)
[6]
  EC50: 8.49 µM (active)

## Cc1cccc(N=C(S)NCc2ccncc2)c1C
[7]
  EC50: > 112 µM (not active)
[8]
  EC50: > 112 µM (not active)

## CSc1ccccc1C(=O)Nc1nc2ccccc2[nH]1
[7]
  EC50: > 112 µM (not active)
[8]
  EC50: > 112 µM (not active)

## COC(=O)c1ccc(C(=O)OC)c(NC(=O)COC(=O)C23CC4CC(CC(O)(C4)C2)C3)c1
[9]
  IC50: > 79 µM (inactive)

## O=C(CSc1nc2ccsc2c(=O)n1Cc1ccccc1)NCC1CCCO1 (stereo unspecified)
[10]
  IC50: > 20 µM (inactive)

## Clc1ccc(NNc2ccnc3cc(Cl)ccc23)cc1
[11]
  CC50: > 40 µM (active)
[1]
  IC50: 34.6 µM (active)

## COc1ccc(C(C2C(=O)CC(C)(C)CC2=O)C2C(=O)CC(C)(C)CC2=O)cc1CO
[12]
  IC50: 45.8 µM (active)

## NC(=O)CSc1cn(Cc2ccc(F)cc2)c2ccccc12
[7]
  EC50: > 112 µM (not active)
[8]
  EC50: > 112 µM (not active)

## NC(=O)c1ccsc1NC(=O)c1cc(=O)c2ccccc2o1
[13]
  IC50: > 66.6 µM (inactive)
[14]
  IC50: 11.7 µM (active)

## COc1ccc(CCn2c(Br)nc3c2c(=O)[nH]c(=O)n3C)cc1
[9]
  IC50: > 79 µM (inactive)

## Cc1ccc(-c2nnc(CSc3nc(C(C)C)nc4sc(C)c(C)c34)o2)cc1
[7]
  EC50: > 112 µM (not active)
[8]
  EC50: > 112 µM (not active)

## O=C(Nc1nc(-c2ccccc2)cs1)C1CCCN(S(=O)(=O)c2ccccc2)C1 (stereo unspecified)
[2]
  CC50: 2.26 µM (active)
[15]
  EC50: 2.68 µM (active)
[16]
  EC50: > 30 µM (not active)

## Cc1ccc2c(c1)c1nnc(SCC(=O)Nc3ccccc3C(F)(F)F)nc1n2CC(=O)O
[17]
  IC50: 18.6 µM (active)

## CCC(CC)c1nnc(NC(=O)CCNC(=O)c2ccccc2Cl)s1
[7]
  EC50: > 112 µM (not active)
[8]
  EC50: > 112 µM (not active)

## CN(C)C(=O)C1C2N=C(S)N(c3cccc(Cl)c3)C1(C)Oc1ccc(Cl)cc12 (stereo unspecified)
[9]
  IC50: 54.6 µM (inactive)

## O=C(CN1CCN(c2ncc(C(F)(F)F)cc2Cl)CC1)NCCNc1ncc(C(F)(F)F)cc1Cl
[18]
  AC50: 5.87 µM (active)

## CCCOc1ccc(/C=C2/C(=O)ON=C2C)cc1OCC
[12]
  IC50: 29 µM (active)
